Biological target: T1, human SK3 channel (hKCa2.3) (Homo sapiens, UniProt Q9UGI6)
T1 construct: expressed in transfected cells
Assay: Automated patch clamping (QPatch 16 HT whole-cell recordings)
Format: cell-based
Settings: HEK-293 cells stably expressing hKCa2.3; currents measured at −80 mV; normalized to N-methyl bicuculline; read-out: IC50 in the Automated patch clamping assay (SK3 channel inhibition)
Procedure: Automated whole cell patch-clamp recordings were performed using a QPatch 16 HT system and single-hole Qplates (Sophion, Denmark) on HEK-293 cells stably expressing the human SK3 channel (hKCa2.3). Cells were cultured and prepared for experiments using normal cell culturing procedures. A total of 4-5 million cells were used per experiment. The Qpatch automatically generates giga sealing, whole-cell formation, compound application and recording of current. hKCa2.3 currents were recorded in symmetrical K^+ solutions. The intracellular/pipette solution contained 154 mM KCl, 10 mM HEPES and 10 mM EGTA. CaCl2 is added to give calculated free concentrations of Ca^2+ of 0.4 μM and MgCl2 is added to give a free concentration of 1 mM. In order to maintain a total [K^+] of 156 mM (corresponding to the concentration in the extracellular ringer) a fixed amount of KOH (15 mM) is added, thereafter pH is adjusted with HCl to pH=7.2. Expected osmolarity: 275 mOsm. Sucrose was added to a final osmolarity around 295 mosm. The extracellular solution consisted of (in mM): CaCl2 0.1, MgCl2 3, KCl 150, HEPES 10 and glucose 10, pH=7.4 adjusted with KOH. Osmolarity between 285-295 mosm. The cells were held at 0 mV and hKCa2.3 currents were elicited by a linear voltage ramp from −80 mV to +80 mV (200 ms in duration) applied every 5th second.
The compound application protocol consisted of 12 recording periods lasting 200 s: 1) Baseline recordings in extracellular solution; 2) Application of the positive control N-methyl bicuculline (100 μM), which is characterized by full efficacy, fast on- and off-rate; 3-4) Wash-out; 5-10) Increasing concentrations of test compound to establish an IC50 value; 11-12) Wash-out; 13) positive control with compound NS8593 (N-[(1R)-1,2,3,4-tetrahydro-1-naphthalenyl]-1H-benzimidazol-2-amine) (1 μM) or with N-methyl bicuculline (100 μM). Data were sampled at 10 kHz, 4th order Bessel filter, cut-off frequency 3 kHz. Currents were compensated for run-down. Potency was quantified as the concentration needed to inhibit half of the SK channel activity and reported as an IC50 value.
All effects of compounds of the present invention as tested were normalized to the observed inhibitory effect of N-methyl bicuculline. Currents were measured at −80 mV.

Row | IC50 [µM] | Structure (SMILES)
1 | < 30 | CC(CO)(Nc1nc2c(CNc3ncco3)cccc2[nH]1)c1ccc(Cl)c(F)c1 (single isomer, unassigned; (-)) [Example 40a, (−)-2-(4-chloro-3-fluorophenyl)-2-[(4-{[(1,3-oxazol-2-yl)amino]methyl}-1H-1,3-benzodiazol-2-yl)amino]propan-1-ol]
2 | < 30 | COCC(C)(Nc1nc2c(Cn3ccoc3=N)cccc2[nH]1)c1ccc(F)c(Cl)c1 (centres unmarked) [Example 14, N-[2-(3-chloro-4-fluorophenyl)-1-methoxypropan-2-yl]-4-[(2-imino-2,3-dihydro-1,3-oxazol-3-yl)methyl]-1H-1,3-benzodiazol-2-amine]
3 | < 1 | Cc1coc(=N)n1Cc1cccc2[nH]c(NC(C)(CO)c3cccc(C(F)(F)F)c3)nc12 (single isomer, unassigned; (-)) [Example 23a, (−)-2-({4-[(2-imino-4-methyl-2,3-dihydro-1,3-oxazol-3-yl)methyl]-1H-1,3-benzodiazol-2-yl}amino)-2-[3-(trifluoromethyl)phenyl]propan-1-ol]
4 | < 1 | CC(C)(Nc1nc2c(Cn3ccoc3=N)cccc2[nH]1)c1cccc(Cl)c1 [Example 2, N-[2-(3-chlorophenyl)propan-2-yl]-4-[(2-imino-2,3-dihydro-1,3-oxazol-3-yl)methyl]-1H-1,3-benzodiazol-2-amine]
5 | < 1 | CC(CO)(Nc1nc2c(Cn3ccoc3=N)cccc2[nH]1)c1ccc(Cl)c(F)c1 (single isomer, unassigned) [Example 39a, 2-(4-chloro-3-fluorophenyl)-2-({4-[(2-imino-2,3-dihydro-1,3-oxazol-3-yl)methyl]-1H-1,3-benzodiazol-2-yl}amino)propan-1-ol]
6 | < 30 | CC(CO)(Nc1nc2c(CNc3ncco3)cccc2[nH]1)c1cccc(Cl)c1F (single isomer, unassigned; (+)) [Example 42a, (+)-2-(3-chloro-2-fluorophenyl)-2-[(4-{[(1,3-oxazol-2-yl)amino]methyl}-1H-1,3-benzodiazol-2-yl)amino]propan-1-ol]
7 | < 30 | CC(CO)(Nc1nc2c(Cn3ccoc3=N)cccc2[nH]1)c1cc(F)cc(Cl)c1 (single isomer, unassigned; (+)) [Example 45b, (+)-2-(3-chloro-5-fluorophenyl)-2-({4-[(2-imino-2,3-dihydro-1,3-oxazol-3-yl)methyl]-1H-1,3-benzodiazol-2-yl}amino)propan-1-ol]
8 | < 30 | Cc1noc(NCc2cccc3[nH]c(NC(C)(CO)c4ccc(F)c(Cl)c4)nc23)n1 (centres unmarked) [Example 17, 2-(3-chloro-4-fluorophenyl)-2-[(4-{[(3-methyl-1,2,4-oxadiazol-5-yl)amino]methyl}-1H-1,3-benzodiazol-2-yl)amino]propan-1-ol]
9 | < 30 | CC(CO)(Nc1nc2c(Cn3ccoc3=N)cccc2[nH]1)c1cccc(Cl)c1F (single isomer, unassigned; (+)) [Example 41b, (+)-2-(3-chloro-2-fluorophenyl)-2-({4-[(2-imino-2,3-dihydro-1,3-oxazol-3-yl)methyl]-1H-1,3-benzodiazol-2-yl}amino)propan-1-ol]
10 | < 30 | CC(CO)(Nc1nc2c(Cn3ccoc3=N)cccc2[nH]1)c1ccc(F)c(Cl)c1 (single isomer, unassigned; (+)) [Example 8b, (+)-2-(3-chloro-4-fluorophenyl)-2-({4-[(2-imino-2,3-dihydro-1,3-oxazol-3-yl)methyl]-1H-1,3-benzodiazol-2-yl}amino)propan-1-ol]
11 | < 1 | CC(Nc1nc2c(Cn3ccoc3=N)cccc2[nH]1)c1cccc(C(F)(F)F)c1 (centres unmarked) [Example 4, 4-[(2-imino-2,3-dihydro-1,3-oxazol-3-yl)methyl]-N-{1-[3-(trifluoromethyl)phenyl]ethyl}-1H-1,3-benzodiazol-2-amine]
12 | < 1 | CC(CO)(Nc1nc2c(Cn3ccoc3=N)cccc2[nH]1)c1cccc(OC(F)(F)F)c1 (centres unmarked) [Example 27, 2-({4-[(2-imino-2,3-dihydro-1,3-oxazol-3-yl)methyl]-1H-1,3-benzodiazol-2-yl}amino)-2-[3-(trifluoromethoxy)phenyl]propan-1-ol]
13 | < 30 | CC(CO)(Nc1nc2c(Cn3ccoc3=N)cccc2[nH]1)c1cc(Cl)ccc1F (single isomer, unassigned; (+)) [Example 47b, (+)-2-(5-chloro-2-fluorophenyl)-2-({4-[(2-imino-2,3-dihydro-1,3-oxazol-3-yl)methyl]-1H-1,3-benzodiazol-2-yl}amino)propan-1-ol]
14 | < 1 | CC(CO)(Nc1nc2c(Cn3ccsc3=N)cccc2[nH]1)c1ccc(F)c(Cl)c1 (centres unmarked) [Example 32, 2-(3-chloro-4-fluorophenyl)-2-({4-[(2-imino-2,3-dihydro-1,3-thiazol-3-yl)methyl]-1H-1,3-benzodiazol-2-yl}amino)propan-1-ol]
15 | < 30 | CC(CO)(Nc1nc2c(CNc3ncco3)cccc2[nH]1)c1ccc(F)c(Cl)c1 (centres unmarked) [Example 38, 2-(3-chloro-4-fluorophenyl)-2-[(4-{[(1,3-oxazol-2-yl)amino]methyl}-1H-1,3-benzodiazol-2-yl)amino]propan-1-ol]
16 | < 1 | CC(CO)(Nc1nc2c(Cn3ccoc3=N)cccc2[nH]1)c1ccc(Cl)c(Cl)c1 (single isomer, unassigned) [Example 19a]
17 | < 30 | Cn1ccnc1NCc1cccc2[nH]c(NC(C)(CO)c3cccc(C(F)(F)F)c3)nc12 (centres unmarked) [Example 22, 2-((4-(((1-methyl-1H-imidazol-2-yl)amino)methyl)-1H-benzo[d]imidazol-2-yl)amino)-2-(3-(trifluoromethyl)phenyl)propan-1-ol]
18 | < 30 | CC(CO)(Nc1nc2c(CNc3ccon3)cccc2[nH]1)c1cc(F)cc(Cl)c1 (single isomer, unassigned; (-)) [Example 46a, (−)-2-(3-chloro-5-fluorophenyl)-2-[(4-{[(1,2-oxazol-3-yl)amino]methyl}-1H-1,3-benzodiazol-2-yl)amino]propan-1-ol]
19 | < 1 | Cc1coc(=N)n1Cc1cccc2[nH]c(NC(C)(CO)c3cccc(Cl)c3)nc12 (centres unmarked) [Example 5, 2-(3-chlorophenyl)-2-({4-[(2-imino-4-methyl-2,3-dihydro-1,3-oxazol-3-yl)methyl]-1H-1,3-benzodiazol-2-yl}amino)propan-1-ol]
20 | < 30 | Cc1oc(=N)n(Cc2cccc3[nH]c(NC(C)(CO)c4cccc(C(F)(F)F)c4)nc23)c1C (centres unmarked) [Example 28, 2-({4-[(2-imino-4,5-dimethyl-2,3-dihydro-1,3-oxazol-3-yl)methyl]-1H-1,3-benzodiazol-2-yl}amino)-2-[3-(trifluoromethyl)phenyl]-propan-1-ol]

Source: patent US11945811B2, “Potassium channel inhibitors” (ACESION PHARMA APS, priority 2021, dated 2024)
